From ChEMBL document CHEMBL5230143, “Inhibitors of gelatinases (MMP-2 and MMP-9) for the management of hematological malignancies” (Eur J Med Chem, 2021)

Assays:
[1] = physchem; settings: water
Description: Solubility of the compound in water

[2] = biological target: T1, Interstitial collagenase (Homo sapiens, UniProt P03956); experiment: Inhibition of MMP-1 (unknown origin) assessed as inhibition constant
T1 sequence (P03956 whole entry): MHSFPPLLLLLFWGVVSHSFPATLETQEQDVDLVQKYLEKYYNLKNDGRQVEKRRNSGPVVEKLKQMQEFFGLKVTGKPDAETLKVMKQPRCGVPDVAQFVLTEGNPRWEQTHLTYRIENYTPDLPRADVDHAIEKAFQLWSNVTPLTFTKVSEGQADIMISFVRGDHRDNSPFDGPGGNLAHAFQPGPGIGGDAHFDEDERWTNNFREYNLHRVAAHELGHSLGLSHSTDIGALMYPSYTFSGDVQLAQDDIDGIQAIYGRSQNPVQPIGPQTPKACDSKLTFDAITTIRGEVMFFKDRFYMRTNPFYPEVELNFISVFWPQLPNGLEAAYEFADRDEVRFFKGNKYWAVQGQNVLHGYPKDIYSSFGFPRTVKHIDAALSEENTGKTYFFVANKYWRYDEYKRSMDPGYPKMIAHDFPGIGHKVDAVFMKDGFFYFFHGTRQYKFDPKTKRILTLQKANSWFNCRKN

[3] = tested on: Jurkat E6.1; experiment: Induction of apoptosis in human Jurkat E6.1 assessed as reduction in MMP-2 expression at 10 uM measured after 48 hrs by annexin V-FITC/propidium iodide staining based flow cytometry analysis relative to control; assay type: functional; parameters: scale not given: the % may be the effect or the level left
[4] = tested on: Jurkat E6.1; experiment: Induction of apoptosis in human Jurkat E6.1 assessed as reduction in HDAC-8 expression at 20 uM measured after 48 hrs by annexin V-FITC/propidium iodide staining based flow cytometry analysis relative to control; assay type: functional; parameters: scale not given: the % may be the effect or the level left
[5] = tested on: Jurkat E6.1; experiment: Cytotoxicity against human Jurkat E6.1 cells incubated for 48 hrs by MTT assay; assay type: functional, cell-based; settings: Jurkat E6.1, 48 h
[6] = tested on: Jurkat E6.1; experiment: Induction of apoptosis in human Jurkat E6.1 assessed as reduction in HDAC-8 expression at 10 uM measured after 48 hrs by annexin V-FITC/propidium iodide staining based flow cytometry analysis relative to control; assay type: functional; parameters: scale not given: the % may be the effect or the level left
[7] = tested on: MOLT-4; experiment: Cytotoxicity against human MOLT-4 cells incubated for 48 hrs by MTT assay; assay type: functional, cell-based; settings: MOLT-4, 48 h
[8] = tested on: Jurkat E6.1; experiment: Induction of apoptosis in human Jurkat E6.1 assessed as reduction in MMP-2 expression at 20 uM measured after 48 hrs by annexin V-FITC/propidium iodide staining based flow cytometry analysis relative to control; assay type: functional; parameters: scale not given: the % may be the effect or the level left
[9] = tested on: U-937; experiment: Cytotoxicity against human U-937 cells incubated for 48 hrs by MTT assay; assay type: functional, cell-based; settings: U-937, 48 h
[10] = biological target: Matrix metalloproteinase-14 (Homo sapiens, UniProt P50281); experiment: Inhibition of MMP-14 (unknown origin)
[11] = biological target: T2, Matrix metalloproteinase-9 (Homo sapiens, UniProt P14780); experiment: Inhibition of MMP-9 (unknown origin)
T2 sequence (P14780 whole entry): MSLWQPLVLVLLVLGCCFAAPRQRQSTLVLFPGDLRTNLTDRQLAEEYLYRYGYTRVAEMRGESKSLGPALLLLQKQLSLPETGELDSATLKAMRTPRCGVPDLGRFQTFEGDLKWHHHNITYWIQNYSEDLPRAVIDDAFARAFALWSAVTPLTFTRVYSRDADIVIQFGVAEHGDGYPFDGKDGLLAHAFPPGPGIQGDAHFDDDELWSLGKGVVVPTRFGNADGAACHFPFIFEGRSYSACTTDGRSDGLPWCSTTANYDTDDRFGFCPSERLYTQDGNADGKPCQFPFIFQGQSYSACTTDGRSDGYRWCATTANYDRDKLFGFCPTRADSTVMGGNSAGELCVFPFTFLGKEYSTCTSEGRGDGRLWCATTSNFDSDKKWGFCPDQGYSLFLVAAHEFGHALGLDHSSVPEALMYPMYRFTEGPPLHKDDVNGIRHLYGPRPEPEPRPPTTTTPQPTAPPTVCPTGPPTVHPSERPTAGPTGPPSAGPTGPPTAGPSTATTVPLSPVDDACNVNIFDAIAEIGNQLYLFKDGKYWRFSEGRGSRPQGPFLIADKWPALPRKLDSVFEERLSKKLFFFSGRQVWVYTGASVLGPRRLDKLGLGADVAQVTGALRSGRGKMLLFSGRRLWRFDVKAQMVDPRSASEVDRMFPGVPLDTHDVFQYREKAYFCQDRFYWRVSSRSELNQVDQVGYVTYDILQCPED

[12] = biological target: T3, 72 kDa type IV collagenase (Homo sapiens, UniProt P08253); experiment: Inhibition of MMP-2 (unknown origin)
T3 sequence (P08253 whole entry): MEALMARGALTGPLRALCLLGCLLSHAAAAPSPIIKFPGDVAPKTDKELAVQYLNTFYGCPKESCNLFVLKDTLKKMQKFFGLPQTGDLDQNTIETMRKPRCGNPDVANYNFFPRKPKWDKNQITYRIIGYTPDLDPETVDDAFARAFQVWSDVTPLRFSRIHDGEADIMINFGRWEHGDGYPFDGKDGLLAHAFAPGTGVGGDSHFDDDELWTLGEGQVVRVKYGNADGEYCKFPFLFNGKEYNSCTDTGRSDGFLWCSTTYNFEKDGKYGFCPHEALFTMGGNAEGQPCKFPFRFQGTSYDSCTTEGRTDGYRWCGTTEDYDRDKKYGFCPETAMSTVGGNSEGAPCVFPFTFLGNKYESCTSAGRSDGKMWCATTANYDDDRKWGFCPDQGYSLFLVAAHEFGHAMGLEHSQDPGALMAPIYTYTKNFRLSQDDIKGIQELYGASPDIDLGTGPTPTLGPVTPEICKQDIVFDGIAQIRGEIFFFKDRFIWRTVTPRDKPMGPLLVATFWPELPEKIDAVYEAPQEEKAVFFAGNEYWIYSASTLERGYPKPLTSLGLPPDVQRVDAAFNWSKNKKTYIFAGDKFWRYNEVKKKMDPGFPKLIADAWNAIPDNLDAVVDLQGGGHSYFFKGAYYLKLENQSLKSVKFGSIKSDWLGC

[13] = biological target: T1, Interstitial collagenase; experiment: Inhibition of MMP-1 (unknown origin)
[14] = biological target: T4, Matrilysin (Homo sapiens, UniProt P09237); experiment: Inhibition of MMP-7 (unknown origin)
T4 sequence (P09237 whole entry): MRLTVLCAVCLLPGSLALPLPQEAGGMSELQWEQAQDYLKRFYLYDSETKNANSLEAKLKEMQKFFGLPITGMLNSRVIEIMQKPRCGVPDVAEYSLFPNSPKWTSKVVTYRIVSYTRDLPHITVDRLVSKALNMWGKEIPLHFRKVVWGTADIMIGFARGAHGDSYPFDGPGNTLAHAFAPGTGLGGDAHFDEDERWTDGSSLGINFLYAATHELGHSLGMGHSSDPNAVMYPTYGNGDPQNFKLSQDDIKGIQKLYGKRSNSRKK

[15] = biological target: Stromelysin-1 (Homo sapiens, UniProt P08254); experiment: Inhibition of human recombinant MMP-3 assessed as inhibition constant
Stromelysin-1, sequence (P08254 whole entry): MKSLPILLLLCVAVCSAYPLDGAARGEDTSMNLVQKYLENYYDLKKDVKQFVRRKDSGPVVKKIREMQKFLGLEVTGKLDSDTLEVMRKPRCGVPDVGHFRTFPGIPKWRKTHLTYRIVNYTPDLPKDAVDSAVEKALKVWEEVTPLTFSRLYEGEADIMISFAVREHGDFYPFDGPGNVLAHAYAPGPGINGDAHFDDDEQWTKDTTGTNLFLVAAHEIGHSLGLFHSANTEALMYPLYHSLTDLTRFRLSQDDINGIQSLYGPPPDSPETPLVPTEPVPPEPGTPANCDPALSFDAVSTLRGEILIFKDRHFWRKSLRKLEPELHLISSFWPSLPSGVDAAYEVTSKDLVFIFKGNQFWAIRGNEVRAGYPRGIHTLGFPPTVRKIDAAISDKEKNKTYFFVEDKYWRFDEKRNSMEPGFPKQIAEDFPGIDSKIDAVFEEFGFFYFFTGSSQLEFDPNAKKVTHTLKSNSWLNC

[16] = biological target: T3, 72 kDa type IV collagenase; experiment: Inhibition of MMP-2 (unknown origin) assessed as inhibition constant
[17] = biological target: T5, Neutrophil collagenase (Homo sapiens, UniProt P22894); experiment: Inhibition of MMP-8 (unknown origin) assessed as inhibition constant
T5 sequence (P22894 whole entry): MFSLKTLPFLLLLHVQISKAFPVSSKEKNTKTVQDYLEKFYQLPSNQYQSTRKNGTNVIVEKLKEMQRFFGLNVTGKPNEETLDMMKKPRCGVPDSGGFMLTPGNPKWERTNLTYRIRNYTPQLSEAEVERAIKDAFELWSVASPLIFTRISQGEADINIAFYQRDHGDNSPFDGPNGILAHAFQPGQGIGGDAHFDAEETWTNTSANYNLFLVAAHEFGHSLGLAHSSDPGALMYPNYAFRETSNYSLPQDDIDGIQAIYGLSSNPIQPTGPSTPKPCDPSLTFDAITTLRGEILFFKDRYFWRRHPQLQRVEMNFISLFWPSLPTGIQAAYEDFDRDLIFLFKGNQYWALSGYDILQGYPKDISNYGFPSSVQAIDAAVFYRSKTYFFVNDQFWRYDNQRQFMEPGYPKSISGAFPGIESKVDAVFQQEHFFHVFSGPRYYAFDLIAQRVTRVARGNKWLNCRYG

[18] = biological target: T2, Matrix metalloproteinase-9; experiment: Inhibition of MMP-9 (unknown origin) assessed as inhibition constant
[19] = tested on: Jurkat E6.1; experiment: Induction of apoptosis in human Jurkat E6.1 assessed as reduction in HDAC-8 expression at 5 uM measured after 48 hrs by annexin V-FITC/propidium iodide staining based flow cytometry analysis relative to control; assay type: functional; parameters: scale not given: the % may be the effect or the level left
[20] = biological target: T6, Histone deacetylase 8 (Homo sapiens, UniProt Q9BY41); experiment: Inhibition of HDAC-8 (unknown origin)
T6 sequence (Q9BY41 whole entry): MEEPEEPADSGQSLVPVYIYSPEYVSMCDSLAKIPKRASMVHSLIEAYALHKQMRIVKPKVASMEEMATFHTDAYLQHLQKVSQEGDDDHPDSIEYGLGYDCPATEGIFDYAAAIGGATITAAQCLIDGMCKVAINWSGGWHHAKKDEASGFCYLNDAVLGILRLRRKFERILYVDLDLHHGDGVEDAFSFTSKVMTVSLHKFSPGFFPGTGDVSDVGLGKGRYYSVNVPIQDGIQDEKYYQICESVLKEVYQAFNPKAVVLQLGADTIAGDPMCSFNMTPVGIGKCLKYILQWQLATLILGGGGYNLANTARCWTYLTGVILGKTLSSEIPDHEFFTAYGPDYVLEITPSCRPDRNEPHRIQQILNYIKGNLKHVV

[21] = biological target: Macrophage metalloelastase (Homo sapiens, UniProt P39900); experiment: Inhibition of MMP-12 (unknown origin)
Macrophage metalloelastase, sequence (P39900 whole entry): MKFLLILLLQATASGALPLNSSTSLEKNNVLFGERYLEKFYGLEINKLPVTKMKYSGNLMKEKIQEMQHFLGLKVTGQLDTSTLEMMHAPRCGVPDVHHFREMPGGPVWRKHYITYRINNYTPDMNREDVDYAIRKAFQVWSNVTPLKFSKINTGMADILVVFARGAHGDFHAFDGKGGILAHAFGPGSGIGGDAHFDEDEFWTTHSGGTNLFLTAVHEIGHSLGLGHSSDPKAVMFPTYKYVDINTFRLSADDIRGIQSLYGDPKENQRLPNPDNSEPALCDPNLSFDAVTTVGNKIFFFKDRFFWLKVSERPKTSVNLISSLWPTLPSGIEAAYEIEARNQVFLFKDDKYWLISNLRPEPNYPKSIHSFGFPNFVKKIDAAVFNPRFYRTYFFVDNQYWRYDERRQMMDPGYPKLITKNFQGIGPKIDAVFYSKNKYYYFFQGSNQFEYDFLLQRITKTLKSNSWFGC

[22] = tested on: Jurkat E6.1; experiment: Induction of apoptosis in human Jurkat E6.1 assessed as reduction in HDAC-8 expression at 2 uM measured after 48 hrs by annexin V-FITC/propidium iodide staining based flow cytometry analysis relative to control; assay type: functional; parameters: scale not given: the % may be the effect or the level left
[23] = biological target: T5, Neutrophil collagenase; experiment: Inhibition of MMP-8 (unknown origin)
[24] = tested on: Jurkat E6.1; experiment: Induction of apoptosis in human Jurkat E6.1 assessed as reduction in MMP-2 expression at 5 uM measured after 48 hrs by annexin V-FITC/propidium iodide staining based flow cytometry analysis relative to control; assay type: functional; parameters: scale not given: the % may be the effect or the level left
[25] = tested on: Jurkat E6.1; experiment: Induction of apoptosis in human Jurkat E6.1 assessed as reduction in MMP-2 expression at 2 uM measured after 48 hrs by annexin V-FITC/propidium iodide staining based flow cytometry analysis relative to control; assay type: functional; parameters: scale not given: the % may be the effect or the level left
[26] = biological target: T2, Matrix metalloproteinase-9; experiment: Binding affinity to human MMP-9 assessed as residence time

N=C(N)NCCC[C@H](N)C(=O)Nc1ccc(Oc2ccc(S(=O)(=O)CC3CS3)cc2)cc1 (stereo partly drawn)
solubility [1]: > 10 mg/mL

O=C(C[C@H](CSc1ccccc1)C(=O)O)c1ccc(-c2ccc(Cl)cc2)cc1 [TANOMASTAT]
Ki [2]: > 5 µM

CC(C)NC(=O)C(CCC(=O)O)NC(=O)Cc1ccc(Cl)cc1 (stereo not drawn)
Activity [3]: 42% | Activity [4]: 58% | IC50 [5]: 11.5 µM | Activity [6]: 32% | IC50 [7]: 11.8 µM | Activity [8]: 58% | IC50 [9]: 29.4 µM

CNC(=O)[C@@H](NC(=O)[C@H](CC(C)C)NC(=O)[C@@H](S)CCN1C(=O)N(C)C(C)(C)C1=O)C(C)(C)C [REBIMASTAT]
IC50 [10]: 0.04 µM | IC50 [11]: 0.027 µM | IC50 [12]: 0.039 µM | IC50 [13]: 0.009 µM | IC50 [14]: 0.023 µM

COc1ccc(S(=O)(=O)N(Cc2ccccc2)[C@@H](C(=O)NO)C(C)C)cc1
Ki [15]: 0.043 µM

CN1C(=O)N(C[C@H](C(=O)NO)[C@H](CC2CCCC2)C(=O)N2CCCCC2)C(=O)C1(C)C
Ki [16]: 0.154 µM | Ki [17]: 0.0044 µM | Ki [18]: 0.059 µM

O=C(O)CCC(NC(=O)Cc1ccc(Br)cc1)C(=O)NCc1ccc([N+](=O)[O-])cc1 (stereo not drawn)
Activity [19]: 68% | IC50 [10]: 56.3 µM | IC50 [5]: 2.77 µM | IC50 [7]: 4.58 µM | IC50 [11]: 4.83 µM | IC50 [20]: 2.89 µM | IC50 [21]: 138 µM | Activity [22]: 48% | IC50 [23]: 206 µM | Activity [24]: 70% | IC50 [12]: 6.4 µM | IC50 [13]: > 250 µM | IC50 [9]: 10.6 µM | Activity [25]: 46%

O=S(=O)(CC1CS1)c1ccc(Oc2ccccc2)cc1 (stereo not drawn)
TIME [26]: 0.223 h
